Source: PMC2363502
Entries after “also recorded” stand apart in the source; their conditions may differ.

Assays:
[1] = system: xenograft or orthotopic tumour; set-up: method as in earlier work; settings: 5- 25 mg kg-1 day-1 intraperitoneally, ref Regenass et al, 1994, Dorhout et al, 1995, Gutman et al, Manni et al, Delworth et al, 1997, Svensson et al, Mi et al, 1998; cited from earlier work
solid tumours = experiment: phase I clinical efficacy (UICC tumour response, markers, FDG-PET); format: in vivo, human
Procedure: Preclinical testing confirmed promising antiproliferative activity. […] Physical examination was performed weekly. […] N-Acetyl-SPERMINE SSAT SSAT […] Analysis was descriptive only. […] Patient characteristics are described in Table 1. […] Three patients completed the full six cycles of treatment. Of these, two received the combination 5FU/SAM486A from cycle 3 onwards. Five patients recorded a best response of stable disease. Of these, three received the combination 5FU/SAM486A from cycle 3 onwards (see below).

tumour = system: tumour; set-up: method as in Gschaidmeier et al, 1999, O'Reilly et al, 2000; settings: in vitro and in vivo; ref Gschaidmeier et al, 1999, O'Reilly et al, 2000; cited from earlier work

N=C(N)c1cccc2c1CCC2=NN=C(N)N [SAM486A]
effect on tumour growth [1]: inhibited tumour growth
objective tumour response (solid tumours; 39 patients): No objective remission; also recorded: No complete or partial responses
patients with stable disease as best response (solid tumours; 39 patients): five
tumour markers (CEA, CA 15.3) post-baseline (solid tumours; six evaluable patients): No trends towards decreases
FDG-PET result after first 5-day infusion (solid tumours; two patients, 400 mg m-2 cycle-1): stable disease at best
effect of combination with 5FU and with cisplatin (tumour): Additive to synergistic effects
